The values below come from paper PMC10855164, “Ligand-Based Design of Selective Peptidomimetic uPA and TMPRSS2 Inhibitors with Arg Bioisosteres” (International Journal of Molecular Sciences, 2024).

For assay [1], the target named is T1, thrombin (Homo sapiens, UniProt P00734).
T1 construct: purchased Bio-techne
Set-up: method as in PMID 35804152. Particulars: published inhibitor; cited from earlier work.

In assay [2] the target is T2, factor Xa (Homo sapiens, UniProt P00742).
T2 construct: purchased Bio-techne
T2 sequence (P00742 235-488 limits assumed): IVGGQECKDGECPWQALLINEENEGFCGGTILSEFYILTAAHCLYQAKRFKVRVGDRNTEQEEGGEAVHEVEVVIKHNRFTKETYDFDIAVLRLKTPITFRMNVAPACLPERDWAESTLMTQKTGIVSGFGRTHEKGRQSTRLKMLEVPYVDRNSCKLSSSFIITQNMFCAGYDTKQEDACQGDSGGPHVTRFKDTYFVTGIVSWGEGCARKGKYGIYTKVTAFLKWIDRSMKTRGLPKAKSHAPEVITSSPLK
T2 sequence (P00742 41-179 partner limits assumed): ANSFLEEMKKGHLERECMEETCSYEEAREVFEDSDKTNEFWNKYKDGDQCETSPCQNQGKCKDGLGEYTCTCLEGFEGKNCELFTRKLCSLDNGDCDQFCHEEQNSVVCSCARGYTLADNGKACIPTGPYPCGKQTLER
Set-up: method as in PMID 35804152. Particulars: published inhibitor; cited from earlier work.

The target of assay [3] is T3, TMPRSS2 (Homo sapiens, UniProt O15393).
T3 construct: purchased Cusabio
T3 sequence (O15393 whole entry): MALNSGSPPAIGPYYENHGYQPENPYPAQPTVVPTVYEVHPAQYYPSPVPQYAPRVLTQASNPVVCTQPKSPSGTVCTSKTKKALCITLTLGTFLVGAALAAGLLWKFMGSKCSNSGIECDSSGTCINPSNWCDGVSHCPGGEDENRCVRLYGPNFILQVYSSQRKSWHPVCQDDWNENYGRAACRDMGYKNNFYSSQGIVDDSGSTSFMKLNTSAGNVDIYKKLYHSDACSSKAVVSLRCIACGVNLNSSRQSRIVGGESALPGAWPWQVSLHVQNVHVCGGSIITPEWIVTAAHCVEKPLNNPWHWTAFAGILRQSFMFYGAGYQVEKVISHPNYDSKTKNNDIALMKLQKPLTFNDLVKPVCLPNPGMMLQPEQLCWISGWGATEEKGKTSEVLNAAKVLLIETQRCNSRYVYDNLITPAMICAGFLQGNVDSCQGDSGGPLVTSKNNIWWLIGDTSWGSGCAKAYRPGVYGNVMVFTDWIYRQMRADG
Set-up: method as in PMID 35804152. To be noted: published inhibitor; cited from earlier work.

Assay [4] deals with T4, matriptase (Homo sapiens, UniProt Q9Y5Y6).
T4 construct: catalytic domain of matriptase (uniport: Q9Y5Y6 aa 596–855); hexa-histidine (N); made in house; host or cells: Escherichia coli BL21 Gold (DE3)
T4 sequence (Q9Y5Y6 596-855): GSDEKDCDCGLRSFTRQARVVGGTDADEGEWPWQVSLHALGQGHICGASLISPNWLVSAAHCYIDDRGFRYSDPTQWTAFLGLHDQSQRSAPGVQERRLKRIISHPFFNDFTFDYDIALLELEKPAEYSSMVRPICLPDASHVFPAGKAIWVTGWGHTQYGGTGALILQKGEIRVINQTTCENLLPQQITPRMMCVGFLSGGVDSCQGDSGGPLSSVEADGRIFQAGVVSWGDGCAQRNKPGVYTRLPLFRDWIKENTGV
Nature of the assay: fluorometric enzyme inhibition assay, matriptase (Boc-Leu-Arg-Arg-AMC). Type of assay: biochemical. How it is done: (§1) The inhibitory activity of the synthesized compounds towards the respective main- and off-target proteases was measured via fluorometric and colorimetric assays. Thus, fluorogenic AMC- or colorimetric pNA-based substrates with a peptide sequence suitable for the tested protease were utilized (see Supplementary Figure S2). At first, the compounds were screened against […] proteases (uPA, TMPRSS2, matriptase, tPA, thrombin, factor Xa) at 20 µM, and a cut-off value of 80% inhibition at this concentration was set, for the differentiation between nonactive (n.a.) and active inhibitors. Due to the reversible inhibition mechanism of the ketobenzothiazole derivates, the IC50 values were determined with Graphpad Prism 9, and afterwards converted to the corresponding Ki values for an adequate comparison between the inhibitory activities of the compounds toward all tested proteases. The Ki values were calculated using the Cheng–Prusoff equation [43].
(§2) Fluorometric inhibition assays
(§3) The inhibitory activities of the compounds against the proteases were determined by enzyme inhibition assays with fluorogenic or colorimetry-based substrates. The fluorescence, caused by cleaved AMC from the fluorogenic substrates (uPA, matriptase, TMPRSS2, thrombin), was measured in white flat-bottom 96-well plates from Greiner Bio-One using a Tecan Infinite F200 Pro plate reader. The absorption, caused by cleaved pNA from colorimetric substrates (factor Xa and tPA), was measured in transparent flat-bottom 96-well plates from Greiner Bio-One using a Tecan Spark 10M plate reader. All measurements with the main-target proteases (uPA and TMRPSS2) were performed as triplicates and with the off-target proteases (matriptase, factor Xa, tPA, thrombin) as duplicates. The substrates and the compounds were prepared as stock solutions in DMSO. Each well contained a total volume of 200 µL, consisting of 185 µL buffer, 5 µL inhibitor in DMSO or pure DMSO as negative control, 5 µL substrate in DMSO and 5 µL enzyme solution in buffer. Dilution series were prepared for the determination of the inhibition constants. The fluorescence signal and absorbance were measured every 30 s for 10 min at 25 or 37 °C with the corresponding excitation/emission (λex = 380 nm / λem = 460 nm) and absorbance (λabs = 405 nm) wavelengths, depending on the targeted protease. IC50 values for the reversible inhibitors were calculated with Graphpad Prism 9 by fitting the remaining enzymatic activity to the four parameter IC50 equation with Y [%] as the residual enzyme activity , Ymax as the maximum value of the dose response curve at inhibitor concentrations [I] = 0 µM, Ymin as the minimum value at high inhibitor concentrations and s as the hill coefficient.[1] The fluorescence progress curves and sigmoidal dose-response curve for inhibition of uPa by compound 38 is shown exemplary in Figure S2. […]
(§4) Due to the dependence of the IC50 value on the substrate affinity and concentration, the Ki values were calculated with the Cheng-Prusoff equation, using the final substrate concentration [S] and the Michaelis-Menten constant KM, (2) for appropriate comparison of the inhibitory activities to the other enzymes and inhibitors.[1]
(§5) KM values were determined by fitting to the Michaelis-Menten equation using Graphpad Prism 9 with v [ΔF/min] as the substrate hydrolysis rate, vmax as the maximum slope of the dose-response curve, and the substrate [S] concentration.[1] The different substrates were serially diluted in DMSO. The measurement was done in analogy to the determination of the inhibitory activity, but with 5 µL pure DMSO instead of inhibitor solution. […]
(§6) The following buffers and substrates were used for the respective assays: uPA (50 mM Tris HCl pH = 7.9, 150 mM […]
(§7) TMPRSS2 (25 mM Tris HCl pH = 8.0, 150 mM NaCl, 5 mM CaCl2, 0.001% TX-100, 100 µM Boc-Gln-Ala-Arg-AMC (KM: 68.63 ± 6.64 µM), 25 °C, 3 nM TMPRSS2)[3]; matriptase (50 mM Tris HCl pH = 8.0, 150 mM NaCl, 5 mM CaCl2, […]

Assay [5] deals with T4, matriptase. Set-up: method as in PMID 35804152. To be noted: published inhibitor; cited from earlier work.
Assay [6] deals with T1, thrombin. Briefly: fluorometric enzyme inhibition assay, thrombin (Z-Gly-Gly-Arg-AMC). Type of assay: biochemical. Here is the method:
as §1, §2, §3, §4, §5, §6, §7

Assay [7] has as its target T2, factor Xa. Briefly: colorimetric enzyme inhibition assay, factor Xa (Z-D-Arg-Gly-Arg-pNA). Type of assay: biochemical. Here is the method:
as §1, §2, §3, §4, §5, §6, §7

Assay [8] has as its target T5, uPA (Homo sapiens, UniProt P00749).
T5 construct: purchased Sigma Aldrich
Briefly: fluorometric enzyme inhibition assay, uPA (Z-Gly-Gly-Arg-AMC). The class given is biochemical. Particulars: from IC50 by Cheng-Prusoff; n.a. = not active, <80% inhibition at 20 µM. How it is done: as §1, §2
The inhibitory activities of the compounds against the proteases were determined by enzyme inhibition assays with fluorogenic or colorimetry-based substrates. The fluorescence, caused by cleaved AMC from the fluorogenic substrates (uPA, matriptase, TMPRSS2, thrombin), was measured in white flat-bottom 96-well plates from Greiner Bio-One using a Tecan Infinite F200 Pro plate reader. The absorption, caused by cleaved pNA from colorimetric substrates (factor Xa and tPA), was measured in transparent flat-bottom 96-well plates from Greiner Bio-One using a Tecan Spark 10M plate reader. All measurements with the main-target proteases (uPA and TMRPSS2) were performed as triplicates and with the off-target proteases (matriptase, factor Xa, tPA, thrombin) as duplicates. The substrates and the compounds were prepared as stock solutions in DMSO. Each well contained a total volume of 200 µL, consisting of 185 µL buffer, 5 µL inhibitor in DMSO or pure DMSO as negative control, 5 µL substrate in DMSO and 5 µL enzyme solution in buffer. Dilution series were prepared for the determination of the inhibition constants. The fluorescence signal and absorbance were measured every 30 s for 10 min at 25 or 37 °C with the corresponding excitation/emission (λex = 380 nm / λem = 460 nm) and absorbance (λabs = 405 nm) wavelengths, depending on the targeted protease. IC50 values for the reversible inhibitors were calculated with Graphpad Prism 9 by fitting the remaining enzymatic activity to the four parameter IC50 equation with Y [%] as the residual enzyme activity , Ymax as the maximum value of the dose response curve at inhibitor concentrations [I] = 0 µM, Ymin as the minimum value at high inhibitor concentrations and s as the hill coefficient.[1] The fluorescence progress curves and sigmoidal dose-response curve for inhibition of uPa by compound 38 is shown exemplary in Figure S2.
Figure S2: (left) Fluorescence progress curves for inhibition of uPa by cpd. 38. (right) Plot showing the respective IC50 value […]
as §4
KM values were determined by fitting to the Michaelis-Menten equation using Graphpad Prism 9 with v [ΔF/min] as the substrate hydrolysis rate, vmax as the maximum slope of the dose-response curve, and the substrate [S] concentration.[1] The different substrates were serially diluted in DMSO. The measurement was done in analogy to the determination of the inhibitory activity, but with 5 µL pure DMSO instead of inhibitor solution. The fluorescence progress curves and Michaelis-Menten curve of the specific substrate of uPA is shown exemplarily […]
Figure S3: (left) Fluorescence progress curves of cleavage of Z-Gly-Gly-Arg-AMC by uPA. (right) Michaelis-Menten curve […]

The target of assay [9] is T6, tPA (Homo sapiens, UniProt P00750).
T6 construct: purchased Sigma Aldrich
T6 sequence (P00750 36-562): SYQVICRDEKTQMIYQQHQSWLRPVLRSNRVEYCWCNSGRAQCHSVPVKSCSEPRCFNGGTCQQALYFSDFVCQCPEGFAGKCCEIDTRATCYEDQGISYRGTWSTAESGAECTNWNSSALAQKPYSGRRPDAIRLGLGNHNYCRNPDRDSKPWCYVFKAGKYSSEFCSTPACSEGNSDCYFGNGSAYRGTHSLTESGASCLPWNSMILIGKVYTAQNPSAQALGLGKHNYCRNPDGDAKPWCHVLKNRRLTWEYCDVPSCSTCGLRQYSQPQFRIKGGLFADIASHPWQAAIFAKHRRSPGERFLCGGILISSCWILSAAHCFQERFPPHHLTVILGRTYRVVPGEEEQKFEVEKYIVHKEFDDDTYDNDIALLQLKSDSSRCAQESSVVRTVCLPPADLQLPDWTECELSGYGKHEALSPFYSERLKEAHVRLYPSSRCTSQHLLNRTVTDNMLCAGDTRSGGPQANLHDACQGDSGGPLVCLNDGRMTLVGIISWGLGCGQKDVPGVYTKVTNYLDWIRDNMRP
Nature of the assay: colorimetric enzyme inhibition assay, tPA (N-methylsulfonyl-D-Phe-Gly-Arg-pNA). The class given is biochemical. To be noted: from IC50 by Cheng-Prusoff; n.a. = not active, <80% inhibition at 20 µM. How it is done:
as §1, §2, §3, §4
KM values were determined by fitting to the Michaelis-Menten equation using Graphpad Prism 9 with v [ΔF/min] as the substrate hydrolysis rate, vmax as the maximum slope of the dose-response curve, and the substrate [S] concentration.[1] The different substrates were serially diluted in DMSO. […]

Assay [10] deals with T3, TMPRSS2. Briefly: fluorometric enzyme inhibition assay, TMPRSS2 (Boc-Gln-Ala-Arg-AMC). Type of assay: biochemical. Particulars: from IC50 by Cheng-Prusoff; n.a. = not active, <80% inhibition at 20 µM. How it is done:
as §1, §2, §3, §4, §5, §6, §7

Setting [11] is: from IC50 by Cheng-Prusoff, n.a. = not active, <80% inhibition at 20 µM.

As for `CC(=O)N[C@@H](CC(N)=O)C(=O)N1CCC[C@H]1C(=O)N[C@@H](CCCNC(=N)N)C(=O)c1nc2ccccc2s1` [Ac-L-Asn-L-Pro-L-Arg-kbt], the Ki was 1.05 µM in assay [1], 0.0411 µM in [2], 0.0025 µM in assay [3] and 0.0052 µM in assay [5]. In addition, in assay [4] (quotient Ki matriptase / Ki TMPRSS2, from cited Ki values (ref 29)), the “Selectivity index [SI] Matriptase” value worked out at 2. Also, the “Selectivity index [SI] Thrombin” value in [6] (quotient Ki thrombin / Ki TMPRSS2, from cited Ki values (ref 29)) is reported as 418. For the same compound, the “Selectivity index [SI] Factor Xa” value in [7] (quotient Ki factor Xa / Ki TMPRSS2, from cited Ki values (ref 29)) is 16.

As to `CC(=O)NCC(=O)N[C@H](C(=O)N[C@@H](C)C(=O)N[C@@H](Cc1cccc(NC(=N)N)c1)C(=O)c1nc2ccccc2s1)[C@H](C)O` [Compound 45], in [8], the “Ki uPA” value is listed as “did not show inhibition”. Moreover, the “Ki Matriptase” value in assay [4] (setting [11]) was “did not show inhibition”. For the same compound, the “Ki tPA” value in assay [9] was “did not show inhibition”. In [6] (setting [11]), the “Ki Thrombin” value is listed as “did not show inhibition”. The “Ki TMPRSS2” value in assay [10] is recorded as “did not show inhibition”. The “Ki Factor Xa” value in assay [7] (setting [11]) is recorded as “did not show inhibition”.
